Assay [1] has as its system SET-2 cells (harboring endogenous JAK2 V618F point mutation). The assay is described as follows: SET-2 cell proliferation assay (CellTiter-Glo, 72 hours). It is filed as cell-based. As to conditions: Homo sapiens, SET-2 essential thrombocythemia cell line, 72 hours incubation, read-out: Cell Proliferation JAK2 SET2 Cell IC50. As to the method: (§1) Alternatively: Colorectal cell line KM12 (harboring endogenous TPM3-TRKA fusion gene) cells were cultured in DMEM medium, supplemented with 10% fetal bovine serum and 100 U/mL of penicillin/streptomycin. Essential thrombocythemia cell line SET-2 cells (harboring endogenous JAK2 V618F point mutation) were cultured in RPMI medium, supplemented with 10% fetal bovine serum and 100 U/mL of penicillin/streptomycin. 5000 cells were seeded in 384 well white plate for 24 hours before compounds treatment. Cell proliferation was measured using CellTiter-Glo luciferase-based ATP detection assay (Promega) following the manufactures's protocol after 72 hours incubation. IC50 determinations were performed using GraphPad Prism software (GraphPad, Inc., San Diego, Calif.).

Assay [2] relates to KM12 cells (harboring endogenous TPM3-TRKA fusion gene). Put plainly: KM12 cell proliferation assay (CellTiter-Glo, 72 hours). The following applies: Homo sapiens, KM12 colorectal cell line, 72 hours incubation. It is filed as cell-based. As to the method: Colorectal cell lines KM 12 (harboring endogenous TPM3-TRKA fusion gene) cells were cultured in DMEM medium, supplemented with 10% fetal bovine serum and 100 U/mL of penicillin/streptomycin. 5000 cells were seeded in 384 well white plate for 24 hours before compounds treatment. Cell proliferation was measured using CellTiter-Glo luciferase-based ATP detection assay (Promega) following the manufactures's protocol after 72 hours incubation. IC50 determinations were performed using GraphPad Prism software (GraphPad, Inc., San Diego, Calif.).
as §1

In assay [3] the target is T1, BTK kinase (Homo sapiens, UniProt Q06187).
T1 construct: purchased Eurofins (KinaseProfiler) / Reaction Biology Corporation
Put plainly: BTK biochemical kinase assay (radiometric; Eurofins KinaseProfiler / Reaction Biology). As to conditions: ATP 10 μM. As to the method:
The Compounds were tested against BTK kinase using the Eurofins standard KinaseProfiler™ assays and following the relevant standard operating procedures. Protein kinases were assayed in a radiometric format. Full details of the assay for each kinase are available on the Eurofins website, or in the accompanying protocol document. All compounds were prepared to a working stock of 50× final assay concentration in 100% DMSO. Where appropriate, more concentrated stocks were diluted manually to 50× using 100% DMSO. Compounds supplied as powders were reconstituted to a 10 mM stock in 100% DMSO before further dilution to 50×. The required volume of the 50× stock of test compound was added to the assay well, before a reaction mix containing the enzyme and substrate was added. The reaction was initiated by the addition of ATP at the selected 10 μM concentration. There was no pre-incubation of the compound with the enzyme/substrate mix prior to ATP addition. For IC50 determinations, data are analysed using XLFit version 5.3 (ID Business Solutions). Sigmoidal dose-response (variable slope) curves are fit based on the mean result for each test concentration using non-linear regression analysis. Where the top and/or bottom of the curve fall >10% out with 100 and 0, respectively, either or both of these limits may be constrained at 100 and 0, provided that the QC criterion on R^2 is met.
The BTK biochemical kinase assay was also performed at Reaction Biology Corporation (www.reactionbiology.com, Malvern, Pa.) following the procedures described in the reference (Anastassiadis T, et al Nat Biotechnol. 2011, 29, 1039). Specific kinase/substrate pairs along with required cofactors were prepared in reaction buffer; 20 mM Hepes pH 7.5, 10 mM MgCl2, 1 mM EGTA, 0.02% Brij35, 0.02 mg/ml BSA, 0.1 mM Na3VO4, 2 mM DTT, 1% DMSO (for specific details of individual kinase reaction components see Supplementary Table 2). Compounds were delivered into the reaction, followed ˜20 minutes later by addition of a mixture of ATP (Sigma, St. Louis Mo.) and ^33P ATP (Perkin Elmer, Waltham Mass.) to a final concentration of 10 μM. Reactions were carried out at room temperature for 120 min, followed by spotting of the reactions onto P81 ion exchange filter paper (Whatman Inc., Piscataway, N.J.). Unbound phosphate was removed by extensive washing of filters in 0.75% phosphoric acid. […] IC50 values and curve fits were obtained using Prism (GraphPad Software).

T1 sequence (Q06187 whole entry): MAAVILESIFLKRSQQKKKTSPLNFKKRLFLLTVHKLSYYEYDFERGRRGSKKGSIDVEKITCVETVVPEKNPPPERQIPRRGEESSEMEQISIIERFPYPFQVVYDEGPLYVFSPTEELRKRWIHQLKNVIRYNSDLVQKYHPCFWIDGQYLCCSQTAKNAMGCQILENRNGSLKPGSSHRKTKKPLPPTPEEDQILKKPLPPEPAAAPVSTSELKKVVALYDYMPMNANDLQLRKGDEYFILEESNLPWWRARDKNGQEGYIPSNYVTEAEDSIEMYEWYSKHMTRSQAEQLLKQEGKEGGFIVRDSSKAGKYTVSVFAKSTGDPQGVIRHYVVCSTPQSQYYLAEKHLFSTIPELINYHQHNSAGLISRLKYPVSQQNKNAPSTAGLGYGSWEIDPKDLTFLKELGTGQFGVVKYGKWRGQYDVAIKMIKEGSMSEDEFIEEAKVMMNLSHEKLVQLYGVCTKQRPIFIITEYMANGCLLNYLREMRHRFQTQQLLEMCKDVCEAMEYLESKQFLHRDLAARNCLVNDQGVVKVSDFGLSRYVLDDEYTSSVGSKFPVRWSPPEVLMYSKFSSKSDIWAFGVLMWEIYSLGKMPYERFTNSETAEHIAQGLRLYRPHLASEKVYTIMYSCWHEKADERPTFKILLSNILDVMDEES

For `C[C@H]1Nc2ccn3ncc(c3n2)C(=O)NCCOc2c(Cl)cc(F)cc21` [Compound 6, (13R)-9-chloro-11-fluoro-13-methyl-6,7,13,14-tetrahydro-1,15-ethenopyrazolo[4,3-f][1,4,8,10]benzoxatriazacyclotridecin-4(5H)-one], the IC50 came out at 78.2 nM in assay [1], 4.2 nM in assay [2] and 64.4 nM in assay [3].
With `C[C@H]1CNC(=O)c2cnn3ccc(nc23)N[C@H](C)c2cc(F)cc(Cl)c2O1` [Compound 8, (7S,13R)-9-chloro-11-fluoro-7,13-dimethyl-6,7,13,14-tetrahydro-1,15-ethenopyrazolo[4,3-f][1,4,8,10]benzoxatriazacyclotridecin-4(5H)-one], the IC50 in assay [1] was 83.7 nM; in assay [2] it was 0.2 nM; in assay [3], 3.97 nM.

Values taken from patent publication US10689400B2, “Macrocycle kinase inhibitors” (Turning Point Therapeutics, Inc., priority 2016, dated 2020).
